{"source": "paper PMC2673432", "about": "(Nucleic Acids Research, 2009)", "molecular_target": "human L3MBTL2 4-MBT-repeat domain (4MBT, residues 170–625) (Homo sapiens, UniProt Q969R5)", "sequence (Q969R5 170-625)": "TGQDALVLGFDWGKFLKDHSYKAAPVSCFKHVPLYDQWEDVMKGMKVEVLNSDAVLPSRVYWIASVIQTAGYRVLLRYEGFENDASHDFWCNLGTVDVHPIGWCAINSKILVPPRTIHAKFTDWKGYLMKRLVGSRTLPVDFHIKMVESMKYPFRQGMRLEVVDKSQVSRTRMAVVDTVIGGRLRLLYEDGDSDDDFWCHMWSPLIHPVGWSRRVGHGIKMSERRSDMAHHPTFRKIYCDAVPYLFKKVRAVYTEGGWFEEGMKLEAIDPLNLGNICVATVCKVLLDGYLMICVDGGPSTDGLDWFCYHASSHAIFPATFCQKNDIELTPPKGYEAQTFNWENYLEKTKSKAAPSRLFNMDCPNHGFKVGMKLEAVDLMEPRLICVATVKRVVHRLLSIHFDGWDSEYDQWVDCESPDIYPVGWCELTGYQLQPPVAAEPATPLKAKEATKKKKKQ", "assay": "Isothermal titration calorimetry", "type": "binding", "conditions": "ITC, 25°C, pH 7.5, 200 mM NaCl; values in Supplementary Figure 3", "data": [{"smiles": "CNCCCC[C@H](N)C(=O)O", "note": "[free mono-methylated lysine, mono-methylated lysine]", "values": [{"measurement": "Relative binding affinity (in words)", "value": "binds mono- and di-methylated lysine centrally located in a peptide more tightly than free mono-methylated lysine"}]}]}
